Test results: PubChem BioAssay (NCI)
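Cells were grown in 96-well plates and exposed to each compound for 48 hours at five concentrations; endpoints were interpolated linearly between bracketing concentrations, or set to the highest concentration if not reached. Here, GI50 denotes the concentration required for 50% inhibition of growth. TGI denotes the concentration required for complete inhibition of growth.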

Key:
Experiment in all cases: DTP human tumour cell line panel, 48 h
SNB-75 CNS = tested on: SNB-75 CNS
MCF7 breast = tested on: MCF7 breast
HCC-2998 colon = tested on: HCC-2998 colon
SK-MEL-28 melanoma = tested on: SK-MEL-28 melanoma
K-562 leukemia = tested on: K-562 leukemia
OVCAR-8 ovarian = tested on: OVCAR-8 ovarian
A498 renal = tested on: A498 renal
HT29 colon = tested on: HT29 colon
UO-31 renal = tested on: UO-31 renal
CCRF-CEM leukemia = tested on: CCRF-CEM leukemia

| SMILES | GI50 (SNB-75 CNS) [µM] | TGI (SNB-75 CNS) [µM] | GI50 (MCF7 breast) [µM] | TGI (MCF7 breast) [µM] | GI50 (HCC-2998 colon) [µM] | TGI (HCC-2998 colon) [µM] | GI50 (SK-MEL-28 melanoma) [µM] | TGI (SK-MEL-28 melanoma) [µM] | GI50 (K-562 leukemia) [µM] | TGI (K-562 leukemia) [µM] | GI50 (OVCAR-8 ovarian) [µM] | TGI (OVCAR-8 ovarian) [µM] | GI50 (A498 renal) [µM] | TGI (A498 renal) [µM] | GI50 (HT29 colon) [µM] | TGI (HT29 colon) [µM] | GI50 (UO-31 renal) [µM] | TGI (UO-31 renal) [µM] | TGI (CCRF-CEM leukemia) [µM] | GI50 (CCRF-CEM leukemia) [µM] |
| --- | --- | --- | --- | --- | --- | --- | --- | --- | --- | --- | --- | --- | --- | --- | --- | --- | --- | --- | --- | --- |
| CC(C)CCOc1ccc(-c2n[nH]c(C(F)(F)F)c2-c2cncc(C#N)c2)c(O)c1 | 2.77 | 14.6 | 2.23 | > 100 | 3.05 | 24.3 | 2.17 | > 100 | 1.87 | > 100 | 2.78 | 19.1 | 1.75 | 6.64 | 2.92 | 14.1 | 1.98 | 7.61 | – | – |
| CCNCC(=O)O[C@]1(CC)C(=O)OCc2c1cc1n(c2=O)Cc2cc3ccccc3nc2-1 | – | 7.91 | – | – | – | 6.88 | – | > 55.5 | – | > 100 | – | 5.68 | – | 4.4 | – | > 32.9 | – | 1.7 | 0.418 | – |
| COC1=CC(O)(CC(N)=O)c2ccccc2C1=O (stereo not given) | – | > 100 | – | – | – | > 100 | – | > 100 | – | > 100 | – | > 100 | – | > 100 | – | > 100 | – | > 100 | > 100 | – |
| C=C1C[C@](OC)([C@H](O)C(=O)N[C@@H](OC)[C@@H]2C[C@@H](O)C(C)(C)[C@@H](C[C@@H](COC)OC)O2)O[C@H](C)[C@@H]1C | 0.00273 | 0.00825 | – | 0.00145 | 0.00101 | 0.00285 | 0.00129 | 0.00383 | – | – | 0.00322 | 0.0096 | 0.00104 | 0.00288 | 0.000865 | 0.0177 | 0.00267 | 0.0295 | 0.361 | 0.0168 |
| CCOC(=O)c1sc2nc3sc(N=Nc4ccc(Cl)cc4)c(O)n3c(=S)c2c1C | 15.5 | > 100 | 21.4 | > 100 | – | – | 28.4 | > 100 | > 100 | > 100 | 29.4 | 95.6 | 24.1 | 62.5 | 36.9 | > 100 | 53.6 | > 100 | > 100 | 32.2 |
| NS(=O)(=O)c1cc2c(cc1Cl)NC(Cc1ccccc1)NS2(=O)=O (stereo not given) | – | > 100 | – | > 100 | – | > 100 | – | > 100 | – | > 100 | – | > 100 | – | > 100 | – | > 100 | – | > 100 | – | – |
| COc1ccc(-c2ccc(/C=N/n3c(COc4ccccc4Cl)nn(CN4CCN(C)CC4)c3=S)o2)c([N+](=O)[O-])c1 | 20.3 | 77.3 | 12.9 | 33.8 | 14.5 | 27.7 | 24.5 | 69.4 | – | – | 17.3 | 42.2 | – | – | 23.5 | 55.9 | 30.1 | > 100 | > 100 | 21.7 |
| CC(=O)C1CC=C(C)CC1 (stereo not given) | – | > 100 | – | – | – | > 100 | – | > 100 | – | > 100 | – | > 100 | – | > 100 | – | > 100 | – | > 100 | > 100 | – |
| CN1CCCNc2c(c(=O)c2=O)NCCCN(C)CCCNc2c(c(=O)c2=O)NCCCN(C)CCCNc2c(c(=O)c2=O)NCCCN(C)CCCNc2c(c(=O)c2=O)NCCCN(C)CCCNc2c(c(=O)c2=O)NCCCN(C)CCCNc2c(c(=O)c2=O)NCCCN(C)CCCNc2c(c(=O)c2=O)NCCC1 | 9.48 | 19.3 | 6.52 | 19.5 | 7.18 | 22.1 | 3.7 | 16.2 | – | – | 2.48 | 46.8 | 2.72 | 11.1 | 9.87 | > 50 | 2.01 | 9.19 | 49.3 | 2.24 |
| CC(=O)c1ccc(NC(=O)CSc2nnc(-c3cc(-c4ccc(C)cc4)nc4ccccc34)o2)cc1 | 1.77 | 3.57 | 2.69 | > 100 | > 100 | > 100 | > 100 | > 100 | 3.15 | > 100 | 2.28 | 4.9 | 2.3 | 7.5 | – | – | 1.75 | 4.5 | > 100 | 4.03 |
| CC/C=C1\N=C(c2ccc(Cl)cc2)OC1=O | – | > 100 | – | – | – | > 100 | – | > 100 | – | > 100 | – | > 100 | – | > 100 | – | > 100 | – | > 100 | > 100 | – |
| C1CCN(CCC2CCCCN2)CC1 (stereo not given) | – | > 100 | – | > 100 | – | – | – | > 100 | – | > 100 | – | > 100 | – | > 100 | – | > 100 | – | – | > 100 | – |
| Cc1cccc(Oc2nccc(-c3c(-c4ccc(F)cc4)ncn3C3CCNCC3)n2)c1C | 5.58 | > 17.5 | 6.68 | > 14.4 | 4.22 | 8.96 | 4.65 | 9.48 | 5.68 | 16 | 10.7 | > 23.5 | 6.22 | > 15.7 | 4.68 | 10.8 | 4.97 | > 19.9 | – | – |
| COc1ccc2oc3c4c2c1CCC4CCC3=O (stereo not given) | – | > 100 | – | – | – | > 100 | – | > 100 | – | > 100 | – | > 100 | – | > 100 | – | > 100 | – | 99.5 | > 100 | – |
| CCN(CC)CCCNc1cccc2c(SCc3ccccc3)ccnc12 | 1.6 | 3.22 | 1.62 | 3.16 | 1.73 | 3.2 | 1.99 | 3.5 | – | – | 3.41 | 11.5 | 1.92 | 4.98 | 0.907 | 2.3 | 0.828 | 2.44 | 3 | 0.179 |
| O=C(CO)CC(=O)C(=O)Nc1nc([N+](=O)[O-])cs1 | – | > 100 | – | – | – | > 100 | – | > 100 | – | > 100 | – | > 100 | – | > 100 | – | > 100 | – | > 100 | > 100 | – |
| CCSCC(N)C(=O)O (stereo not given) | – | > 100 | – | > 100 | – | – | – | > 100 | – | – | – | > 100 | – | > 100 | – | > 100 | – | > 100 | > 100 | – |
